Converted amounts (≈) assume the structure as drawn. Like-named read-outs stand apart in the source and are kept apart here. No end group written: not given here.
Key:
[1] = test system: E. coli ATCC 51659 (MDR, O157:H7); details: Mueller Hinton Broth; for Minimum inhibitory concentration (MIC): MDR strain, CLSI broth microdilution, 5 × 10^4 CFU/well, OD600, <10% of untreated control = clear, n = 3; for Minimum inhibitory concentration (MIC) / Antibacterial screening: growth inhibition / bactericidal activity: 16–20 h, 37°C; for Antibacterial screening: growth inhibition / bactericidal activity: 5 × 10^5 CFU/mL, OD600, n = 3
[2] = test system: E. coli ATCC 4157 (antibiotic susceptible); details: Mueller Hinton Broth; for Minimum inhibitory concentration (MIC): antibiotic susceptible strain, CLSI broth microdilution, 5 × 10^4 CFU/well, OD600, n = 3
[3] = test system: S. aureus ATCC 33592 (MDR, MRSA); details: Mueller Hinton Broth, 16–20 h, 37°C; for Minimum inhibitory concentration (MIC): MDR (MRSA) strain, CLSI broth microdilution, 5 × 10^4 CFU/well, OD600, n = 3; for Antibacterial screening: growth inhibition / bactericidal activity: peptide 100 μg/ml, 5 × 10^5 CFU/mL, OD600, n = 3
S. aureus ATCC 33592 = type: cell-based, Staphylococcus aureus
Method: (§1) The antimicrobial activity of the PHNX peptides (China Peptides custom synthesis) and LL-37 (AnaSpec 61302) against bacteria was determined as previously described ([Barksdale et al., 2016], [2017]). Briefly, 1 × 10^5 CFU per well of bacteria were incubated with different peptide concentrations (n = 3) in a 50-μl solution of 10 mM sodium phosphate buffer (3 h, 37°C). Serial dilutions were then prepared in 1X Dulbecco’s PBS and 8 μl of each dilution was spotted in triplicate on Tryptic Soy Agar plates, which were incubated (37°C, 24 h) and CFUs were counted ([Barksdale et al., 2016], [2017]). Bacterial survival at each peptide concentration was calculated based on the ratio of the number of colonies on each experimental plate and the average number of colonies observed for assay cultures lacking peptide. The peptide concentration required to kill 50% of the viable bacteria in the assay cultures (EC50) was determined by plotting percent survival as a function of the log of peptide concentration (log μg/ml) and fitting the data using GraphPad Prism 6 (GraphPad Software Inc., San Diego, CA, United States). For the purpose of graphing, samples that had no peptide (0 μg/ml) are plotted at 1 × 10^–7 μg/ml peptide. EC50 values were determined by fitting the data from the antimicrobial assays to a standard sigmoidal dose–response curve. […] Wells containing only 10 mM sodium phosphate buffer were used as sterility control.

E. coli ATCC 51659 = type: cell-based, Escherichia coli
Method: as §1

[4] = test system: S. aureus ATCC BAA-1718 (antibiotic susceptible); details: antibiotic susceptible strain; CLSI broth microdilution, Mueller Hinton Broth, 5 × 10^4 CFU/well, 16–20 h, 37°C, OD600; n = 3
human red blood cells = assay: Hemolysis assay; type: cell-based; details: 2% human RBCs (K2EDTA blood) in PBS, 1 h, 37°C
[5] = same EC50 presented in micromolar units, 10 mM sodium phosphate buffer, 3 h, 37°C, read-out: EC50
[6] = peptide 100 μg/ml, OD540, DI water = full lysis, n = 3

Row | Molecule | Minimum inhibitory concentration (MIC) [1] [µg/mL] | EC50 (S. aureus ATCC 33592; ATCC 33592, 3 h) [nM] | EC50 (E. coli ATCC 51659; ATCC 51659, 3 h) [nM] | Half maximal effective concentration (EC50) (E. coli ATCC 51659; ATCC 51659, 3 h) [µg/mL] | also measured
1 | KRFKKFFRKLKKSVKKRAKEFFKKPRVIGVSIPF [BF-CATH, reference compound] | 8 | – | – | – | Antibacterial screening: growth inhibition / bactericidal activity ([1]; peptide 100 μg/ml): 100%; Minimum inhibitory concentration (MIC) ([2]; 16–20 h, 37°C): 4 µg/mL; Minimum inhibitory concentration (MIC) [3]: 64 µg/mL; Antibacterial screening: growth inhibition / bactericidal activity [3]: 100%
2 | FLLKLGLGKKKLL [PHNX-4] | – | 3290 | 1980 | ≤ 10 | –
3 | FLIKILKGGKGGK [PHNX-5] | >100 | > 7360 | 3640 | ≤ 10 | –
4 | FIGAIASYLKKFR [PHNX-6] | >100 | 5240 | 1720 | ≤ 10 | –
5 | GVVDIIKGAGKKFAKGLAGKIANKK [PHNX-7] | – | 830 | 20 | ≤ 10 | –
6 | FGKLLKLGKGLGG [PHNX-2] | >100 | – | > 7780 | – | EC50 (S. aureus ATCC 33592; [5]): > 7780 nM
7 | FGKLLKLGKGLKG [PHNX-3] | >100 | – | – | >10 | EC50 (S. aureus ATCC 33592; [5]): > 7340 nM
8 | VRLIVAVRIWRR-NH2 (C-terminus assumed) [IDR-1018] | ~16 | – | – | – | Minimum inhibitory concentration (MIC) [4]: ~16 µg/mL; Antibacterial screening: growth inhibition / bactericidal activity ([1]; peptide 100 μg/ml): 100%; Minimum inhibitory concentration (MIC) [3]: ~16 µg/mL; Antibacterial screening: growth inhibition / bactericidal activity [3]: 100%; Hemolysis (human red blood cells; peptide 1 μg/ml, OD540, n = 3): negligible hemolysis; Hemolysis (human red blood cells; peptide 10 μg/ml, OD540, n = 3): ~10%; Hemolysis (human red blood cells; [6]): approximately 40%
9 | FLLKIVALLKKKLL [PHNX-1] | – | 140 | 80 | ≤ 10 | –
10 | CC[C@H](C)[C@H](NC(=O)[C@H](CCCCN)NC(=O)[C@H](CCC(=O)O)NC(=O)[C@H](CCCCN)NC(=O)[C@H](CO)NC(=O)[C@H](CCCCN)NC(=O)[C@H](CCCNC(=N)N)NC(=O)[C@H](Cc1ccccc1)NC(=O)[C@H](Cc1ccccc1)NC(=O)[C@H](CC(=O)O)NC(=O)CNC(=O)[C@H](CC(C)C)NC(=O)[C@@H](N)CC(C)C)C(=O)NCC(=O)N[C@@H](CCCCN)C(=O)N[C@@H](CCC(=O)O)C(=O)N[C@@H](Cc1ccccc1)C(=O)N[C@@H](CCCCN)C(=O)N[C@@H](CCCNC(=N)N)C(=O)N[C@H](C(=O)N[C@H](C(=O)N[C@@H](CCC(N)=O)C(=O)N[C@@H](CCCNC(=N)N)C(=O)N[C@H](C(=O)N[C@@H](CCCCN)C(=O)N[C@@H](CC(=O)O)C(=O)N[C@@H](Cc1ccccc1)C(=O)N[C@@H](CC(C)C)C(=O)N[C@@H](CCCNC(=N)N)C(=O)N[C@@H](CC(N)=O)C(=O)N[C@@H](CC(C)C)C(=O)N[C@H](C(=O)N1CCC[C@H]1C(=O)N[C@@H](CCCNC(=N)N)C(=O)N[C@H](C(=O)N[C@@H](CCC(=O)O)C(=O)N[C@@H](CO)C(=O)O)[C@@H](C)O)C(C)C)[C@@H](C)CC)C(C)C)[C@@H](C)CC [LL-37] | 32 (≈ 7.12 µM) | – | – | – | Hemolysis (human red blood cells; peptide 1 μg/ml, OD540, n = 3): negligible hemolysis; Hemolysis (human red blood cells; [6]): approximately 40%
11 | GLMDTVKNAAKNLAGQLLD KIKCKITG (disulfide) [PHNX-8, 28-residue synthetic AMP with a C-terminal rana box, designed by positional analysis on Dataset 2] | 64 | – | – | – | Antibacterial screening: growth inhibition / bactericidal activity ([1]; peptide 100 μg/ml): showed activity; Antibacterial screening: bacterial survival ([1]; peptide 100 μg/ml, Figure 3C): ~0%; Minimum inhibitory concentration (MIC) ([2]; 16–20 h, 37°C): 32 µg/mL; Antibacterial screening: growth inhibition / bactericidal activity ([2]; peptide 100 μg/ml, 5 × 10^5 CFU/mL, 16–20 h, 37°C, OD600, n = 3): showed activity; Antibacterial screening: bacterial survival ([2]; peptide 100 μg/ml, Figure 3A): ~0%; Half maximal effective concentration (EC50) (S. aureus ATCC 33592; low salt: 10 mM sodium phosphate buffer, 1 × 10^5 CFU per well, 3 h, 37°C, CFU counting, sigmoidal fit, n = 3): 3.31 µg/mL; EC50 (S. aureus ATCC 33592; [5]): 1120 nM; EC50 (E. coli ATCC 51659; [5]): 20 nM

Source: PMC8636942, “Ab initio Designed Antimicrobial Peptides Against Gram-Negative Bacteria” (Frontiers in Microbiology, 2021)
